This data set has as its system human PKK mRNA. The data set is described as follows: Antisense inhibition of human PKK mRNA in HepaRG cells, 5,000 nM (Example 2). Format: cell-based. Put shortly:
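Chimeric MOE gapmers with full phosphorothioate backbones were tested once at 5,000 nM in electroporated HepaRG cells. After about 24 hours, quantitative PCR measured PKK mRNA relative to untreated control cells.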

[1] abbreviates: HepaRG cells, electroporation, 5,000 nM antisense oligonucleotide, approx. 24 hours, primer probe set RTS3454, relative to untreated control cells, Table 12.
Setting [2] is: Table 9 experiment, HepaRG cells, 20,000 cells per well, electroporation with 5,000 nM antisense oligonucleotide, approx. 24 hours, PKK mRNA by RT-PCR (RTS3454), relative to untreated control cells.
Where [3] appears, read: Table 10 experiment, HepaRG cells, 20,000 cells per well, electroporation with 5,000 nM antisense oligonucleotide, approx. 24 hours, PKK mRNA by RT-PCR (RTS3454), relative to untreated control cells.
Where [4] appears, read: HepaRG cells, 5,000 nM antisense oligonucleotide, 5-10-5 gapmers, Table 17.
Setting [5] is: HepaRG cells, electroporation with 5,000 nM antisense oligonucleotide, approximately 24 hours, PKK mRNA by RT-PCR (RTS3454), relative to untreated control cells, Table 5 experiment.
[6] abbreviates: HepaRG cells, electroporation, 5,000 nM antisense oligonucleotide, approx. 24 hours, primer probe set RTS3454, relative to untreated control cells, Table 11.
Where [7] appears, read: human PKK mRNA, HepaRG cells, 5,000 nM antisense oligonucleotide, Table 18.
Setting [8] is: HepaRG cells, electroporation with 5,000 nM antisense oligonucleotide, approximately 24 hours, PKK mRNA by RT-PCR (RTS3454), relative to untreated control cells, Table 6 experiment.
Setting [9] is: Table 8, HepaRG cells, electroporation with 5,000 nM antisense oligonucleotide, approx. 24 hours, PKK mRNA by RT-PCR (RTS3454), relative to untreated control cells.
Where [10] appears, read: human PKK mRNA, HepaRG cells, 5-10-5 motif oligonucleotides targeting SEQ ID NO: 1 and 10.
Setting [11] is: Table 7, HepaRG cells, electroporation with 5,000 nM antisense oligonucleotide, approx. 24 hours, PKK mRNA by RT-PCR (RTS3454), relative to untreated control cells.
Where [12] appears, read: Table 13, human PKK mRNA in HepaRG cells, 5-10-5 gapmers.

Strand notation (5' to 3'): a small letter for the sugar, then the base; units joined by * are phosphorothioate-linked, units joined directly phosphodiester-linked; [ ] holds rarer units or linkages, { } end groups; capitals alone tell only the bases. e = 2'-O-(2-methoxyethyl) (MOE); [5mC] = 5-methylcytosine; d = 2'-deoxy (DNA)

Regarding “546499 (eT*e[5mC]*e[5mC]*eA*eT*dG*d[5mC]*dA*dT*dA*d[5mC]*dT*d[5mC]*dG*d[5mC]*e[5mC]*eT*eT*eT*eG; antisense) [compound 546499]”, the “% inhibition” value under setting [1] was found to be 20%.
With “546347 (antisense eA*e[5mC]*eT*eA*eA*dG*dG*dG*dA*d[5mC]*d[5mC]*dA*d[5mC]*d[5mC]*dT*eG*eA*eA*eT*e[5mC]) [compound 546347]”, the “% inhibition” value reads like this: under setting [2], 28%; under setting [3], 22%.
With “546511 (eG*eT*eG*eA*eT*dG*dA*dA*dA*dG*dT*dA*d[5mC]*dA*dG*e[5mC]*eA*eG*e[5mC]*eA; antisense) [compound 546511]”, under setting [1], the “% inhibition” value came out at 50%.
Take “547750 (eT*eG*eG*eT*eT*dG*dG*dT*dG*dG*d[5mC]*dG*dG*dG*dA*eT*e[5mC]*eG*eG*eT; antisense) [compound 547750]”: the “% inhibition” value under setting [4] stood at 41%.
“547283 (antisense eA*eG*eT*eT*eG*d[5mC]*dT*dT*dG*d[5mC]*dT*dT*dG*dA*dA*eT*eA*eA*eA*eA) [compound 547283]”: the “% inhibition” value under setting [5] stood at 67%.
Take “547515 (antisense eA*eG*eA*eA*eG*dA*dT*dG*d[5mC]*d[5mC]*dA*d[5mC]*dT*d[5mC]*dT*e[5mC]*e[5mC]*eA*eT*eG) [compound 547515]”: the “% inhibition” value under setting [6] was determined as 58%.
Consider “548750 (antisense e[5mC]*eT*eG*eT*dA*d[5mC]*dT*dA*dG*dT*dT*dT*d[5mC]*d[5mC]*eT*eA*eT*eA) [compound 548750]”, for which the “% inhibition” value under setting [7] was 62%.
For “547327 (antisense eT*eT*eG*eA*eT*dG*dA*d[5mC]*d[5mC]*dA*d[5mC]*dA*dT*dT*dG*e[5mC]*eT*eT*e[5mC]*eA) [compound 547327]”, under setting [8], the “% inhibition” value is 45%.
As to “546166 (eT*eG*eT*e[5mC]*eA*dT*dT*dG*dA*dT*dT*dG*dA*dA*d[5mC]*eT*eT*eG*e[5mC]*eT; antisense) [compound 546166]”, the “% inhibition” value under setting [5] is on record as 70%.
Turning to “546155 (e[5mC]*e[5mC]*eT*e[5mC]*eA*dT*d[5mC]*dT*dG*dG*d[5mC]*dA*dG*dT*dA*eT*eT*eG*eG*eG; antisense) [compound 546155]”, the “% inhibition” value under setting [5] came to 47%.
Turning to “547025 (eT*eG*eG*eT*eG*dG*dT*dG*dG*dG*dA*dT*dT*dG*dG*eT*eG*eG*eT*eT; antisense) [compound 547025]”, the “% inhibition” value under setting [4] was 72%.
Consider “547326 (antisense eA*eT*eG*eA*e[5mC]*d[5mC]*dA*d[5mC]*dA*dT*dT*dG*d[5mC]*dT*dT*e[5mC]*eA*eA*eG*eG) [compound 547326]”, for which, under setting [8], the “% inhibition” value is reported as 48%.
For the substance “546322 (antisense e[5mC]*eT*eT*eG*eT*dG*dT*d[5mC]*dA*d[5mC]*d[5mC]*dT*dT*dT*dG*eG*eA*eA*eG*eG) [compound 546322]”, the “% inhibition” value runs as follows: under setting [2], 74%; under setting [3], 68%.
Regarding “547308 (antisense eT*e[5mC]*eA*eA*eG*dA*dA*dG*d[5mC]*dA*dA*d[5mC]*d[5mC]*dA*dA*eA*e[5mC]*e[5mC]*eT*eT) [compound 547308]”, the “% inhibition” value under setting [5] is 66%.
Consider “547472 (antisense eT*e[5mC]*eA*e[5mC]*e[5mC]*dT*dT*dT*d[5mC]*dT*d[5mC]*d[5mC]*dT*dT*d[5mC]*eG*eA*eG*eA*eA) [compound 547472]”, for which the “% inhibition” value by setting is: under setting [2], 44%; under setting [3], 42%.
In the case of “548729 (DNA eG*eT*eA*e[5mC]*dT*dA*dG*dT*dT*dT*d[5mC]*d[5mC]*dT*dA*eT*eA*eA; antisense) [compound 548729]”, the “% inhibition” value under setting [7] was determined as 13%.
Turning to “546293 (antisense eG*e[5mC]*e[5mC]*eT*e[5mC]*dT*dG*dA*dG*d[5mC]*dT*dG*dT*d[5mC]*dA*eG*e[5mC]*eT*eT*e[5mC]) [compound 546293]”, the “% inhibition” value under setting [9] is reported as 64%.
“546447 (eG*eT*e[5mC]*eA*e[5mC]*d[5mC]*dA*dT*dA*dG*dA*d[5mC]*d[5mC]*d[5mC]*dA*eG*eA*eA*eT*e[5mC]; antisense) [compound 546447]”: the “% inhibition” value under setting [1] worked out at 68%.
With “547657 (eA*e[5mC]*eA*eA*eT*dA*dT*d[5mC]*dA*d[5mC]*dT*dG*dT*d[5mC]*d[5mC]*eT*eA*eT*eA*eA; antisense) [compound 547657]”, the “% inhibition” value under setting [10] turned out to be 43%.
Regarding “547431 (e[5mC]*eA*eG*eT*eG*dT*dT*dA*d[5mC]*dA*d[5mC]*dA*dA*dT*d[5mC]*eT*e[5mC]*eA*eA*eA; antisense) [compound 547431]”, the “% inhibition” value under setting [9] turned out to be 67%.
Regarding “547362 (e[5mC]*eA*eA*e[5mC]*eA*dT*d[5mC]*d[5mC]*dA*d[5mC]*dA*dT*d[5mC]*dT*dG*eA*eG*eA*eA*e[5mC]; antisense) [compound 547362]”, the “% inhibition” value under setting [8] is 47%.
Regarding “547332 (antisense e[5mC]*eG*eA*eT*eG*dG*d[5mC]*dA*dA*dG*d[5mC]*dA*d[5mC]*dT*dT*eA*eT*eT*eT*eG) [compound 547332]”, the “% inhibition” value under setting [8] came to 44%.
Take “546229 (antisense eA*e[5mC]*eA*eT*eT*dT*d[5mC]*dT*dT*dT*dG*dT*dG*dA*d[5mC]*eT*e[5mC]*eG*eA*eT) [compound 546229]”: the “% inhibition” value under setting [11] is reported as 19%.
In the case of “548734 (DNA eT*e[5mC]*eA*e[5mC]*dT*dG*dT*dA*d[5mC]*dT*dA*dG*dT*dT*eT*e[5mC]*e[5mC]; antisense) [compound 548734]”, the “% inhibition” value under setting [7] is 51%.
For the substance “546382 (antisense e[5mC]*eA*eA*eA*eG*dA*dA*dG*dA*dT*dG*d[5mC]*d[5mC]*dA*d[5mC]*eT*e[5mC]*eT*e[5mC]*e[5mC]) [compound 546382]”, the “% inhibition” value under setting [6] came out at 58%.
For the substance “547658 (e[5mC]*eG*eT*eA*e[5mC]*dT*dA*dG*dT*dT*dT*d[5mC]*d[5mC]*dT*dA*eT*eA*eA*e[5mC]*eT; antisense) [compound 547658]”, the “% inhibition” value under setting [10] stood at 68%.
As to “546327 (antisense eG*eG*eT*eT*eA*d[5mC]*d[5mC]*d[5mC]*dA*dA*d[5mC]*dA*dG*dT*dT*eG*eG*eT*eA*eT) [compound 546327]”, the “% inhibition” value under setting [2] worked out at 95% and the “% inhibition” value under setting [3] is on record as 84%.
“547594 (eG*eT*eT*eT*e[5mC]*d[5mC]*dT*dA*dT*dA*dA*d[5mC]*dT*dA*dT*eA*eA*e[5mC]*eA*eG; antisense) [compound 547594]”: the “% inhibition” value (human PKK mRNA in HepaRG cells, 5-10-5 gapmers, Table 14) is given as 19%.
Consider “546136 (eG*eG*eA*eG*eG*dT*dG*dA*dG*dT*d[5mC]*dT*d[5mC]*dT*dT*eG*eT*e[5mC]*eA*e[5mC]; antisense) [compound 546136]”, for which the “% inhibition” value under setting [5] came out at 86%.
Consider “547278 (antisense eA*e[5mC]*eA*e[5mC]*eA*dA*dT*dT*dG*d[5mC]*dT*dT*d[5mC]*dT*dT*eG*eG*eA*eG*eG) [compound 547278]”, for which the “% inhibition” value under setting [5] stood at 70%.
As to “547739 (eA*eT*eT*eG*eG*dT*dG*dG*dT*dG*dG*dG*dA*dT*dT*eG*eG*eT*eG*e[5mC]; antisense) [compound 547739]”, the “% inhibition” value under setting [4] was 12%.
As to “546279 (eG*e[5mC]*eT*e[5mC]*e[5mC]*d[5mC]*dT*dT*dG*dT*dG*dT*d[5mC]*d[5mC]*d[5mC]*eA*eT*eA*e[5mC]*eG; antisense) [compound 546279]”, the “% inhibition” value under setting [9] is on record as 82%.
Take “546907 (eA*eT*eA*eA*e[5mC]*dT*dA*dT*dA*dA*d[5mC]*dA*dG*dT*dA*eT*e[5mC]*eA*e[5mC]*e[5mC]; antisense) [compound 546907]”: the “% inhibition” value under setting [10] is 37%.
As to “547375 (eG*eT*eG*eA*eT*dA*dG*dG*dT*dG*d[5mC]*dA*dG*dA*dT*eG*eG*eT*e[5mC]*e[5mC]; antisense) [compound 547375]”, under setting [11], the “% inhibition” value stood at 72%.
As for “546288 (antisense eG*eT*eT*eT*eG*dT*dT*d[5mC]*d[5mC]*dT*d[5mC]*d[5mC]*dA*dA*d[5mC]*eA*eA*eT*eG*e[5mC]) [compound 546288]”, the “% inhibition” value under setting [9] amounted to 78%.
In the case of “547565 (e[5mC]*eT*eT*eA*eT*d[5mC]*dA*dG*dT*d[5mC]*d[5mC]*d[5mC]*dA*dG*dT*e[5mC]*eA*eT*eG*eT; antisense) [compound 547565]”, under setting [12], the “% inhibition” value stood at 63%.
For “547385 (eT*eG*eT*eG*e[5mC]*d[5mC]*dA*d[5mC]*dT*dT*dT*d[5mC]*dA*dG*dA*eT*eG*eT*eT*eT; antisense) [compound 547385]”, the “% inhibition” value under setting [11] is on record as 80%.
With “547581 (eA*eT*eA*eT*e[5mC]*dA*d[5mC]*dT*dG*dT*d[5mC]*d[5mC]*dT*dA*dT*eA*eA*e[5mC]*eT*e[5mC]; antisense) [compound 547581]”, the “% inhibition” value under setting [12] was determined as 60%.
As for “546307 (antisense eT*eA*eT*eA*eG*dT*dT*dT*dT*dG*dG*dT*dG*dA*dA*eT*eA*eA*eT*eA) [compound 546307]”, the “% inhibition” value under setting [2] is 12% and the “% inhibition” value under setting [3] came to 0%.

As usually defined, the % inhibition is the percentage by which the read-out fell short of the control. Low values mean a weak effect, high ones a strong effect.

The values are drawn from patent US11840686B2, “Modulation of prekallikrein (PKK) expression” (Ionis Pharmaceuticals, Inc., priority 2013, dated 2023).
